# Assay results published in PMC7821381, “Multi-Targeted Anticancer Activity of Imidazolate Phosphane Gold(I) Compounds by Inhibition of DHFR and TrxR in Breast Cancer Cells” (Frontiers in Chemistry, 2021).
# How the values were obtained:
# SKBR3 cells = assay: MTT cell viability assay on SKBR3 cells; type: cell-based, human; conditions: for IC50: SKBR3, 48 h, ± S. D.; for cytotoxic activity in MTT screening: SKBR3 cells, 72 h (Figure 1S) and 48 h (Figure 2)
# Excerpt: Human MDA-MB-231 (ER–/PR–/HER2–) and SK-BR-3 (ER–/PR–/HER2+) cells were obtained from American Type Culture Collection (Rockville, MD) and cultured in Dulbecco's Modified Essential Medium (DMEM, Gibco, Life Technologies) supplemented with 10% fetal bovine serum (FBS, Gibco, Life Technologies) and 1% penicillin–streptomycin (Gibco, Life Technologies). A17 cells were established from a spontaneous lobular carcinoma that arose in an FVB/neuT mouse (Galiè et al., [2005]), and maintained in DMEM plus 20% FBS and 1% penicillin-streptomycin. Cells were cultured at 37°C under humidified atmosphere with 5% CO2.
# Stock solutions were prepared for each gold(I) compound (50 mM) using dimethyl sulfoxide (DMSO) (Sigma-Aldrich) as solvent. The effects of gold(I) compounds on SKBR3, A17 and MDA-MB231 cells viability were evaluated by seeding, respectively, 10, ^*10^3, 2.5 ^*10^3, 7, ^*10^3 cells/well in 96 wells plates in complete medium (DMEM supplemented with FBS) and compared to those of cisplatin. The day after, fresh medium containing vehicle alone (DMSO, 1 % v/v final concentration) or increasing concentrations of each compound ranging from 0.1 to 100 μM was added. Cell viability was determined using a MTT [3-(4,5-dimethylthiazol-2-yl)-2,5-diphenyl-2H-tetrazolium bromide Sigma Aldrich, St. Louis, MO] assay, which is based on the conversion of MTT to formazan crystals by mitochondrial enzymes, after 24, 48, and 72 h. The formazan deposits were dissolved in DMSO and the absorbance of each well was measured at 540 nm in Multiskan Ascent 96/384 Plate Reader. Each drug concentration was evaluated with 8 replicates and each experiment was repeated three times. At the end of the experiments a dose–response curve was plotted, and the IC50 concentrations were determined. Statistical analysis was performed using One-Way ANOVA analysis of variance followed by Dunnett's Multiple Comparison Test. Quantitative data are presented as means ± SEM. Differences were considered significant at ^*P ≤ 0.0332; ^**P ≤ 0.0021; ^***P ≤ 0.0002; ^****P ≤ 0.0001.
# IC50 values were calculated for each of the cell lines tested, by fitting the concentration-effect curves data obtained in the three experiments with the sigmoid-Emax model using nonlinear regression, weighted by the reciprocal of the square of the predicted effect.
# [1] = target: T1, dihydrofolate reductase (DHFR) (Mus musculus, UniProt P00375); assay: DHFR specific enzymatic activity in lysates of treated A17 cells; type: cell-based, murine; conditions: 6 μM (maximum inhibition)
# T1 construct: Cell lysates were collected using Cell Culture Lysis Reagent; endogenous in cells; host or cells: A17 (murine basal-like breast cancer cells)
# T1 sequence (P00375 1-187): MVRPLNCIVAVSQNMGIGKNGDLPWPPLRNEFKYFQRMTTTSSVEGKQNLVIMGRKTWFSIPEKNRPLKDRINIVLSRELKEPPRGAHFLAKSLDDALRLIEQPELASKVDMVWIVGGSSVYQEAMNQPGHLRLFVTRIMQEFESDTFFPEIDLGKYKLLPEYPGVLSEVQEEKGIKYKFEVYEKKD
# Protocol: SKBR3, MDA-MB-231 and A17 cells were plated onto 100 mm cell culture dishes (2 × 10^6 cells/ dish). The day after, cells were treated with vehicle alone (DMSO) as control or increasing concentrations of compound 5 and compound 6 in DMEM supplemented with 2% FBS (Invitrogen, Carlsbad, CA) for 4 h or 12 h. Representative pictures of cells treated with compound 5 or 6 at the indicated concentration for 4 or 12 h just before to take cell lysates for the enzymatic tests are reported as supplemental files. Cell lysates were collected using Cell Culture Lysis Reagent (Promega, Madison, WI) supplemented with BSA (1%) and protease inhibitors. DHFR activity was assessed by spectrophotometric assay as reported elsewhere (Wang et al., [2020]) in which the reaction rate was followed by recording the decreasing absorbance at 340 nm due to oxidation of NADPH to NADP^+, using a Shimadzu UV-2450 spectrophotometer. When necessary, because of low protein content in the lysates, the DHFR enzymatic activity was measured by a discontinuous direct HPLC assay using an Agilent 1100 system. HPLC-DAD (Agilent 1100) was used to detect and quantify the presence of NADP^+, as one of the products of DHFR catalyzed reaction, in cell lysates. Fifty microliter of the cell lysate were incubated at 37°C in a reaction mixture containing 760 μl of buffer (0.05 M Hepes pH 7.3), 20 μl of NADPH 4 mM, and 20 μl of dihydrofolate (H2F) 4 mM. The samples for HPLC analysis were prepared as follows: 50 μl aliquots of each mixture were stopped at different times (0, 5, 10, 20, 30, and 60 min) by adding 25 μl of HClO4 1.2 M; after 10 min on ice and centrifugation for 5 min at 12,000 g, 60 μl of each supernatant were neutralized by adding 17.5 μl of K2CO3 0.79 M, kept on ice and centrifuged again. Fifty microliter of the supernatant obtained were directly injected into the reversed phase column for separations of reagents and products of the enzyme catalyzed reaction. The column used is a Supelcosil LC RP 18 (4.6 × 250 mm) with pre-column SupelGuard. The HPLC settings are the same reported in Wang et al. ([2020]). The amounts of product (NADP^+) were determined from the peak areas of the HPLC-separated compounds with reference to appropriate standards. One enzyme unit is defined as the amount of enzyme which catalyzes the reduction of 1 μmol of dihydrofolate, per minute, at 37°C. Enzyme activities were normalized by the protein content, determined by the Bradford assay (Bradford, [1976]).
# [2] = A17, 4 h treatment, control 1.17 ± 0.06
# [3] = A17, 12 h treatment, control 4.77 ± 0.78
Substance,IC50 (SKBR3 cells) [µM],cytotoxic activity in MTT screening (SKBR3 cells),"Specific enzymatic activity of DHFR [1, 2] [mU/mg]","Specific enzymatic activity of DHFR [1, 3] [mU/mg]"
"4,5-dichloro-imidazolate-1yl-gold(I)-(triphenylphosphane) [Compound 6]",4.55 ± 0.25,most active,1.03 ± 0.03,2.01 ± 0.14
"4,5-dicyano-imidazolate-1yl-gold(I)-(triphenylphosphane) [Compound 5]",5.36 ± 0.35,most active,1.07 ± 0.02,1.66 ± 0.07
